Assay results: ChEMBL document CHEMBL1201862, “PubChem BioAssay data set” (2004)
Activity calls are given as the source filed them.

Tests used:
[1] = target: T1, Oxysterols receptor LXR-beta (Homo sapiens, UniProt P55055); type: functional, cell-based;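 also: agonist activity at LXR measured by a cell-based luminescence readout across a dose range, run as a counterscreen for daf-12 agonists; HEK293 cells with Gal4-LXR fusion and GAL4-driven luciferase reporter; potency for activation of Gal4-LXR reporter so compounds are agonists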
T1 sequence (P55055 whole entry): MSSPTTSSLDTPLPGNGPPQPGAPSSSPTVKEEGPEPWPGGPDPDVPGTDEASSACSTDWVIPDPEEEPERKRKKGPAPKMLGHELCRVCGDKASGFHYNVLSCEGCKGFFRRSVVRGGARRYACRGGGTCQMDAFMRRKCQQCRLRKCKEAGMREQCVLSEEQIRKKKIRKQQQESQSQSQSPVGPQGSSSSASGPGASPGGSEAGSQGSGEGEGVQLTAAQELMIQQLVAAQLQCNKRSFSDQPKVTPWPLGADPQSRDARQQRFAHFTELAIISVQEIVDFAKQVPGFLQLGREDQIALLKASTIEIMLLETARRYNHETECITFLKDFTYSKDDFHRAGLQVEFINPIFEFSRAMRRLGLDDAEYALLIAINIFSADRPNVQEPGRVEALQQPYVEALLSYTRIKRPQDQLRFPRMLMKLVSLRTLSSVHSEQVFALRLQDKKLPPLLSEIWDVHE

[2] = inhibitors of non-replicating M. tuberculosis, dose response, luciferase, dry powder (AID 651619); type: functional
[3] = inhibitors of non-replicating M. tuberculosis, dose response, luciferase, dry powder (AID 651620); type: functional
[4] = target: NAD-dependent protein deacylase sirtuin-5, mitochondrial (Homo sapiens, UniProt Q9NXA8); assay: blockers of sirtuin-5 peptide desuccinylation – biochemical, fluorescence imaging, cherry-pick, set 6, dose response (AID 720597)
[5] = target: fMet-Leu-Phe receptor (Homo sapiens, UniProt P21462); assay: formyl peptide receptor binders – dose response (AID 519); type: functional
[6] = alpha-synuclein stem-loop luciferase translation blockers – H4 neuroglioma cells, luminescence, confirmation (AID 1988); type: functional, cell-based
[7] = target: T2, Heat shock factor protein 1 (Mus musculus, UniProt P38532); assay: decrease of HSF1-responsive luciferase luminescence – cell-based, NIH3T3, dose retest, confirmation (AID 2382); type: functional;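 also: NIH3T3 fibroblasts with HSF1-driven luciferase reporter stressed by proteasome inhibitor MG132; luminescence from HSF1-driven luciferase expression after 8 hours of MG132 stress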
T2 sequence (P38532 whole entry): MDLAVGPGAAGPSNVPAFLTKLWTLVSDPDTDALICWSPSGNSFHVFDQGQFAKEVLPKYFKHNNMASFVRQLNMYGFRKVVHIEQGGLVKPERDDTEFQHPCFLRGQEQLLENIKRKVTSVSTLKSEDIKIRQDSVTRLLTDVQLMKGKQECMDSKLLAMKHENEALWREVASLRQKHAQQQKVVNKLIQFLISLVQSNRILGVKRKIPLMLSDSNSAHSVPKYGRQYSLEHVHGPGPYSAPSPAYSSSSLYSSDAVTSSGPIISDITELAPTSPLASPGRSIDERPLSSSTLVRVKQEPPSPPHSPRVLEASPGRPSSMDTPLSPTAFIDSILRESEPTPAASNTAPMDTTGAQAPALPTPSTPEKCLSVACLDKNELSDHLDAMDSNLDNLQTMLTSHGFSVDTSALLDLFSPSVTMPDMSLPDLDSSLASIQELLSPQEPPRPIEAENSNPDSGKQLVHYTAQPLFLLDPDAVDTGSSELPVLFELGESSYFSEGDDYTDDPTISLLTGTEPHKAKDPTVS

[8] = luciferase reporter signal suppression in cells – H4 neuroglioma cells, luminescence, dose response (AID 1990); type: functional, cell-based
[9] = Luminescence Cell-Based Dose Response HTS to Identify Inhibitors of 5'UTR Stem-Loop Driven Prion Protein mRNA Translation in H4 Neuroglioblastoma Cells. [Related pubchem assays: 1827 (Project Summary), 1813 (Primary HTS)]; type: functional
[10] = toxicity toward HepG2 liver cells – cell-based, plate reader, cherry-pick, antagonist series, cytotoxicity control, dose response (AID 743416); type: functional
[11] = A549 cell cytotoxicity, dose response, cytotoxicity control, plate reader, cherry-pick, antagonist series (AID 743412); type: functional, cell-based
[12] = viability loss in HEK293 cells – cell-based, plate reader, cherry-picked samples, cytotoxicity control, dose response (AID 743446); type: functional
[13] = blockade of melanocortin 4 receptor signaling – cell-based, plate reader, cherry pick, counter-screen for LGR2 antagonist project, dose response (AID 743444); type: functional;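 also: transfected HEK 293 cells stimulated with alpha-MSH peptide; potency of inhibitors of the alpha-MSH evoked signal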
[14] = blockers of bursicon-stimulated LGR2 cAMP reporter – cell-based, HEK293, CRE-luciferase reporter, cherry pick, set 2, dose response (AID 743343); type: functional;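 also: transfected cells were stimulated with diluted bursicon conditioned medium after compound addition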

Sequence of fMet-Leu-Phe receptor (P21462 whole entry): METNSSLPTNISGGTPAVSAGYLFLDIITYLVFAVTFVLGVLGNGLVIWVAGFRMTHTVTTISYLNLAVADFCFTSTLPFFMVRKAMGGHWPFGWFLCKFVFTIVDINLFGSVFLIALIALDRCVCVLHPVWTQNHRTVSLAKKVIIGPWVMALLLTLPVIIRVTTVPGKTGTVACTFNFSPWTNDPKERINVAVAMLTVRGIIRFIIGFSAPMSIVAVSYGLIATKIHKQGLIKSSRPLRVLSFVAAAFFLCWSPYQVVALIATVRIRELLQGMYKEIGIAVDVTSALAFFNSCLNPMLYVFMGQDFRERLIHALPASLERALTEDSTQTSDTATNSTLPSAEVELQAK
Sequence of NAD-dependent protein deacylase sirtuin-5, mitochondrial (Q9NXA8 whole entry): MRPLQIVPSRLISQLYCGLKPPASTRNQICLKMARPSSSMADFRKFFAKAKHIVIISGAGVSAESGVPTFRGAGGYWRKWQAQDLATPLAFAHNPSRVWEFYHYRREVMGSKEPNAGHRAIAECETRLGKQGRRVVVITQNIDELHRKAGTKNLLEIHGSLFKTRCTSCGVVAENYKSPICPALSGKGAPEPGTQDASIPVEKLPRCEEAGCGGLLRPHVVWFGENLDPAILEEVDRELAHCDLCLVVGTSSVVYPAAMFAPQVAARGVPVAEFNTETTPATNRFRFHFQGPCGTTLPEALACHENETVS

## CCOC(=O)c1csc(-c2sccc2Br)n1
[1]
  EC50: > 67.6 µM (inactive)

## Clc1ccc(-c2nnc(SCc3cn(Cc4ccccc4)nn3)o2)cc1
[2]
  IC90: 1 µM (active)
[2]; Mycobacterium tuberculosis
  IC90: 2 µM (active)
[3]
  IC90: 1 µM (active)
[3]; Mycobacterium tuberculosis
  IC90: 2 µM (active)

## C[C@H](CO)N1C[C@H](C)[C@@H](CN(C)C)Oc2ccc(NC(=O)Nc3ccc(F)cc3)cc2CC1=O
[4]
  AC50: > 30 µM (inactive)

## COc1ccc(Cl)cc1-n1c(=S)sc2c(O)nc(SCC(=O)NCC3CCCO3)nc21 (configuration not stated)
[5]
  Ki: 9.3 µM (active)

## c1c2c(cc3sc(N4CCCCC4)nc13)OCCO2
[6]
  EC50: 8.83 µM (active)
[7]
  EC50: 11.5 µM (active)
[8]
  EC50: > 120 µM (not active)
[9]
  EC50: 8.9 µM (active)
[10]
  AC50: 30.7 µM (active)
[11]
  AC50: 32.9 µM (active)
[12]
  AC50: 13.6 µM (active)
[13]
  AC50: 1.97 µM (active)
[14]
  AC50: 1.58 µM (active)

## CC1(C)S[C@@H]2[C@H](NC(=O)C(C(=O)O)c3ccccc3)C(=O)N2[C@H]1C(=O)O (some centres not stated) [CARBENICILLIN DISODIUM]
[5]
  Ki: > 66.7 µM (inactive)
